From the NIST ThermoML archive (doi:10.1016/j.jct.2006.05.005)
± gives the expanded uncertainty stated by the source.

What was measured:
[1] = Liquid; for mass density: 293.15 K, 101.33 kPa
[2] = refractive index (Na D-line) (dimensionless); conditions: 293.15 K; 101.33 kPa; Liquid

Row | mass density [1] | Normal boiling temperature [1] | refractive index [2] | Compound
1 | 723.9 ± 2.4 kg/m3 | 68.40 ± 0.4 °C |  | CC(C)OC(C)C [diisopropyl ether]
2 | 736.1 ± 8.8 kg/m3 | 90.08 ± 0.4 °C | 1.3813 ± 0.0064 | CCCOCCC [dipropyl ether]
3 | 993 ± 0.74 kg/m3 | 141.2 ± 0.4 °C | 1.3811 ± 0.0017 | CCC(=O)O [propanoic acid]
